Measured values: US20230330077A1, “USE OF SPHINGOSINE-1-PHOSPHATE RECEPTOR AGONIST” (LG CHEM, LTD., priority 2020, published 2023)

Experiments:
[1] = test system: oxazolone-induced animal model of atopic dermatitis; experiment: oxazolone-induced animal model of atopic dermatitis in mice; assay type: in vivo, mice (Balb/c)
Protocol: An animal model of atopic dermatitis was induced in mice (Balb/c) by the use of oxazolone. With the first sensitization day of oxazolone set as day 0, it was administered orally or transdermally starting on day 7 once a day. When the date of application of oxazolone and the date of administration of the drug were overlapped, the drug was administered about 6 hours after application of oxazolone.
For all mice, abdominal hair was removed one day before the first application of oxazolone. Then, 1% or 0.2% oxazolone was prepared by the use of a 4:1 ratio of acetone/corn oil, and sensitization and induction on the shaved mouse abdomen and both ears were performed with the same dose and schedule as represented in Table 1 and FIG. 1.
The test substances (the Test Compound and dexamethasone as a positive control) were prepared for each administration dose as represented in Table 2 below by the use of 0.5% methyl cellulose. In the case of the Test Compound, it was prepared in consideration of the HCl salt form. The test substances were dissolved in 0.5% methyl cellulose and then sonicated.
The test substances were prepared by dissolving them at the concentration of 0.1% (w/v) in a solution (PEG400:100% ethanol=1:1). 5 mL of PEG400 was added to 10 mg of the test substances and sonicated. When they were dissolved to some extent, 5 mL of 100% ethanol was added thereto and sonicated to dissolve them completely. In addition, the vehicle and the test substances were prepared fresh every day and used.

[2] = test system: oxazolone-induced animal model of atopic dermatitis; experiment: as above; assay type: in vivo, mice (Balb/c); settings: Example 4, Table 3; for Therapeutic effect (Compared to disease-induced group): Ear thickness (Day 21 after administration): reduction in ear thickness
[3] = Example 4, Table 3, oral administration 1 mg/kg once a day, reduction in ear thickness
[4] = Example 4, Table 3, oral administration 1 mg/kg once a day, reduction in ear weight after autopsy
[5] = Example 4, Table 3, oral administration 1 mg/kg once a day, reduction in epidermal thickness
[6] = Example 4, Table 3, oral administration 1 mg/kg once a day, reduction in the blood level of IgE
[7] = Example 5 comparative experimentation, Table 4, oral administration 0.1 mg/kg
[8] = Example 5 comparative experimentation, Table 4, oral administration 0.3 mg/kg
[9] = Example 5 comparative experimentation, Table 4, oral administration 1 mg/kg
[10] = Example 5 comparative experimentation, Table 4, oral administration 1 mg/kg, blood level of IgE

C[C@@H]1C[C@H]2[C@@H]3CCC4=CC(=O)C=C[C@]4(C)[C@@]3(F)[C@@H](O)C[C@]2(C)[C@@]1(O)C(=O)CO [Dexamethasone, dexamethasone, reference compound]
Therapeutic effect (Compared to disease-induced group): Ear thickness (Day 21 after administration) [1, 3]: 66% | Therapeutic effect (Compared to disease-induced group): Ear weight (Day 21 after administration) [1, 4]: 54% | Therapeutic effect (Compared to disease-induced group): Epidermal thickness of ear tissue (Day 21 after administration) [1, 5]: 55% | Therapeutic effect (Compared to disease-induced group): IgE (Day 21 after administration) [1, 6]: 12%

CC(C)n1nc(Cl)c2cc(COc3ccc4c(c3)CCC(CN3CCC(C(=O)O)CC3)=C4Cl)ccc21 [Test Compound, 1-[1-Chloro-6-(3-chloro-1-isopropyl-1H-indazol-5-ylmethoxy)-3,4-dihydro-naphthalen-2-ylmethyl]-piperidine-4-carboxylic acid]
Therapeutic effect (Compared to disease-induced group): Ear thickness (Day 21 after administration) ([1]; Example 4, Table 3, oral administration 0.1 mg/kg once a day, reduction in ear thickness): 37% | Therapeutic effect (Compared to disease-induced group): Ear weight (Day 21 after administration) ([1]; Example 4, Table 3, oral administration 0.1 mg/kg once a day, reduction in ear weight after autopsy): −2% | Therapeutic effect (Compared to disease-induced group): Epidermal thickness of ear tissue (Day 21 after administration) ([1]; Example 4, Table 3, oral administration 0.1 mg/kg once a day, reduction in epidermal thickness): 25% | Therapeutic effect (Compared to disease-induced group): Mast cell accumulation (Day 21 after administration) ([1]; Example 4, Table 3, oral administration 0.1 mg/kg once a day, reduction in mast cell accumulation, ear tissue): 21% | Therapeutic effect (Compared to disease-induced group): IgE (Day 21 after administration) ([1]; Example 4, Table 3, oral administration 0.1 mg/kg once a day, reduction in the blood level of IgE): −56% | Therapeutic effect (Compared to disease-induced group): Ear thickness (Day 21 after administration) ([1]; Example 4, Table 3, oral administration 0.3 mg/kg once a day, reduction in ear thickness): 63% | Therapeutic effect (Compared to disease-induced group): Ear weight (Day 21 after administration) ([1]; Example 4, Table 3, oral administration 0.3 mg/kg once a day, reduction in ear weight after autopsy): 48% | Therapeutic effect (Compared to disease-induced group): Epidermal thickness of ear tissue (Day 21 after administration) ([1]; Example 4, Table 3, oral administration 0.3 mg/kg once a day, reduction in epidermal thickness): 56% | Therapeutic effect (Compared to disease-induced group): Mast cell accumulation (Day 21 after administration) ([1]; Example 4, Table 3, oral administration 0.3 mg/kg once a day, reduction in mast cell accumulation, ear tissue): 34% | Therapeutic effect (Compared to disease-induced group): IgE (Day 21 after administration) ([1]; Example 4, Table 3, oral administration 0.3 mg/kg once a day, reduction in the blood level of IgE): 38% | Therapeutic effect (Compared to disease-induced group): Ear thickness (Day 21 after administration) [1, 3]: 61% | Therapeutic effect (Compared to disease-induced group): Ear weight (Day 21 after administration) [1, 4]: 53% | Therapeutic effect (Compared to disease-induced group): Epidermal thickness of ear tissue (Day 21 after administration) [1, 5]: 61% | Therapeutic effect (Compared to disease-induced group): Mast cell accumulation (Day 21 after administration) ([1]; Example 4, Table 3, oral administration 1 mg/kg once a day, reduction in mast cell accumulation, ear tissue): 29% | Therapeutic effect (Compared to disease-induced group): IgE (Day 21 after administration) [1, 6]: 44% | Therapeutic effect (Compared to disease-induced group): Ear weight (Day 21 after administration) ([1]; Example 4, Table 3, topical administration 0.01% once a day, reduction in ear weight after autopsy): 65% | Therapeutic effect (Compared to disease-induced group): Mast cell accumulation (Day 21 after administration) ([1]; Example 4, Table 3, topical administration 0.01% once a day, reduction in mast cell accumulation, ear tissue): 42% | Therapeutic effect (Compared to disease-induced group): IgE (Day 21 after administration) ([1]; Example 4, Table 3, topical administration 0.01% once a day, reduction in the blood level of IgE): 43% | Therapeutic effect (Compared to disease-induced group): Ear weight (Day 21 after administration) ([1]; Example 4, Table 3, topical administration 0.03% once a day, reduction in ear weight after autopsy): 72% | Therapeutic effect (Compared to disease-induced group): Epidermal thickness of ear tissue (Day 21 after administration) ([1]; Example 4, Table 3, topical administration 0.03% once a day, reduction in epidermal thickness): 55% | Therapeutic effect (Compared to disease-induced group): Mast cell accumulation (Day 21 after administration) ([1]; Example 4, Table 3, topical administration 0.03% once a day, reduction in mast cell accumulation, ear tissue): 59% | Therapeutic effect (Compared to disease-induced group): Ear thickness (Day 21 after administration) ([1]; Example 4, Table 3, topical administration 0.1% once a day, reduction in ear thickness): 69% | Therapeutic effect (Compared to disease-induced group): Ear weight (Day 21 after administration) ([1]; Example 4, Table 3, topical administration 0.1% once a day, reduction in ear weight after autopsy): 69% | Therapeutic effect (Compared to disease-induced group): Epidermal thickness of ear tissue (Day 21 after administration) ([1]; Example 4, Table 3, topical administration 0.1% once a day, reduction in epidermal thickness): 58% | Therapeutic effect (Compared to disease-induced group): Mast cell accumulation (Day 21 after administration) ([1]; Example 4, Table 3, topical administration 0.1% once a day, reduction in mast cell accumulation, ear tissue): 70% | Therapeutic effect (Compared to disease-induced group): IgE (Day 21 after administration) ([1]; Example 4, Table 3, topical administration 0.1% once a day, reduction in the blood level of IgE): 71% | overall effect in the oxazolone-induced animal model of atopic dermatitis versus positive control ([1]; Example 4, summary of Table 3 and FIGS. 2 to 6): superior effect in a dose-dependent manner compared to dexamethasone | overall effect in the animal model of atopic dermatitis versus comparative compound ([1]; Example 5, summary of Table 4 and FIG. 7): equal or superior effects even at lower doses compared to the comparative compound, etrasimod | Therapeutic effect (Compared to disease-induced group): Ear thickness (Day 21 after administration) [1, 7]: 14% | Therapeutic effect (Compared to disease-induced group): Ear weight (Day 21 after administration) [1, 7]: 31% | Therapeutic effect (Compared to disease-induced group): Epidermal thickness of ear tissue (Day 21 after administration) [1, 7]: 21% | Therapeutic effect (Compared to disease-induced group): Mast cell accumulation (Day 21 after administration) [1, 7]: 27% | Therapeutic effect (Compared to disease-induced group): IgE (Day 21 after administration) ([1]; Example 5 comparative experimentation, Table 4, oral administration 0.1 mg/kg, blood level of IgE): 31% | Therapeutic effect (Compared to disease-induced group): Ear thickness (Day 21 after administration) [1, 8]: 29% | Therapeutic effect (Compared to disease-induced group): Ear weight (Day 21 after administration) [1, 8]: 55% | Therapeutic effect (Compared to disease-induced group): Epidermal thickness of ear tissue (Day 21 after administration) [1, 8]: 42% | Therapeutic effect (Compared to disease-induced group): Mast cell accumulation (Day 21 after administration) [1, 8]: 35% | Therapeutic effect (Compared to disease-induced group): IgE (Day 21 after administration) ([1]; Example 5 comparative experimentation, Table 4, oral administration 0.3 mg/kg, blood level of IgE): 46% | Therapeutic effect (Compared to disease-induced group): Ear thickness (Day 21 after administration) [1, 9]: 42% | Therapeutic effect (Compared to disease-induced group): Ear weight (Day 21 after administration) [1, 9]: 69% | Therapeutic effect (Compared to disease-induced group): Epidermal thickness of ear tissue (Day 21 after administration) [1, 9]: 44% | Therapeutic effect (Compared to disease-induced group): Mast cell accumulation (Day 21 after administration) [1, 9]: 43% | Therapeutic effect (Compared to disease-induced group): IgE (Day 21 after administration) [1, 10]: 72% | Therapeutic effect (Compared to disease-induced group): Ear thickness (Day 21 after administration) ([2]; topical administration 0.01% once a day): 63% | Therapeutic effect (Compared to disease-induced group): Epidermal thickness of ear tissue (Day 21 after administration) ([2]; topical administration 0.01% once a day, reduction in epidermal thickness): 26% | Therapeutic effect (Compared to disease-induced group): Ear thickness (Day 21 after administration) ([2]; topical administration 0.03% once a day): 71% | Therapeutic effect (Compared to disease-induced group): IgE (Day 21 after administration) ([2]; topical administration 0.03% once a day, reduction in the blood level of IgE): 74%

O=C(O)C[C@H]1CCc2c1[nH]c1ccc(OCc3ccc(C4CCCC4)c(C(F)(F)F)c3)cc21 [etrasimod, 2-[(3R)-7-[[4-cyclopentyl-3-(trifluoromethyl)phenyl]methoxy]-1,2,3,4-tetrahydrocyclopenta[b]indol-3-yl] acetic acid, reference compound]
Therapeutic effect (Compared to disease-induced group): Ear thickness (Day 21 after administration) [1, 9]: 32% | Therapeutic effect (Compared to disease-induced group): Ear weight (Day 21 after administration) [1, 9]: 50% | Therapeutic effect (Compared to disease-induced group): Epidermal thickness of ear tissue (Day 21 after administration) [1, 9]: 36% | Therapeutic effect (Compared to disease-induced group): Mast cell accumulation (Day 21 after administration) [1, 9]: 28% | Therapeutic effect (Compared to disease-induced group): IgE (Day 21 after administration) [1, 10]: 47%
